# Target: human HPK1 (MAP4K1) (Homo sapiens (Human), UniProt Q92918)
# Test: HPK1 IC50 Assay (TR-FRET peptide phosphorylation)
# Type: biochemical
# Conditions: 0.15 nM HPK1, 10 μM ATP, 1 μM STK S1 peptide substrate; geometric mean
# Summary of the method: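 Readout: TR-FRET (665 nm/620 nm) after EDTA stop, detecting STK S1 peptide (1 μM) phosphorylation by 0.15 nM HPK1 kinase domain, ATP-pre-activated, at 10 μM ATP over 3 h, 25° C, pH 7.0. IC50s from four-parameter variable-slope fits, normalized to staurosporine and DMSO, averaged geometrically.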
# Sequence of human HPK1 (MAP4K1) (Q92918 17-274): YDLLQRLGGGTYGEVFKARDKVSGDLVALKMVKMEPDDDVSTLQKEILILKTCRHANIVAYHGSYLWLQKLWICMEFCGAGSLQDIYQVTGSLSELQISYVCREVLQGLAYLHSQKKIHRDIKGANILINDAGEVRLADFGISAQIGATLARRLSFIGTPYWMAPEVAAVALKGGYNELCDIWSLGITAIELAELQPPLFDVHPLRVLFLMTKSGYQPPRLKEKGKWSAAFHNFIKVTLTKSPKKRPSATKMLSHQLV
row,IC50 [nM],SMILES
1,0.08,"CC(C)n1cnc2cc(-c3ccc4c(c3)N([C@H]3C[C@@](C)(N5CCCCC5)C3)C(=O)C4(C)C)nc(Nc3cc(C(=O)NC4(C(F)F)CC4)c(Cl)cc3F)c21 [Example 294, 2-chloro-N-(1-(difluoromethyl)cyclopropyl)-5-((6-(3,3-dimethyl-1-((1s,3s)-3-methyl-3-(piperidin-1-yl)cyclobutyl)-2-oxoindolin-6-yl)-3-isopropyl-3H-imidazo[4,5-c]pyridin-4-yl)amino)-4-fluorobenzamide]"

# Same assay, conditions: recombinant HPK1 kinase domain 0.15 nM, 10 μM ATP, 1 μM STK S1 peptide; geometric mean of multiple experiments
row,IC50 [nM],SMILES
1,0.2,CNC(=O)c1cc(Nc2nc(-c3ccc4c(c3)N([C@H]3C[C@@H](N5CCC6(C5)CC6(F)F)C3)C(=O)C43CCN(C(C)=O)CC3)cc3ncn(C(C)C)c23)ccc1C (stereo partly drawn) [Example 164]
2,0.05,"CC(C)n1cnc2cc(-c3cnc4c(c3)N([C@H]3C[C@@](C)(N5CCC6CC6C5)C3)C(=O)C4(C)C)nc(Nc3cc(C(=O)NCC(F)F)c(Cl)c(F)c3F)c21 (stereo partly drawn) [Example 256, 5-((6-(1-((1s,3s)-3-(3-azabicyclo[4.1.0]heptan-3-yl)-3-methylcyclobutyl)-3,3-dimethyl-2-oxo-2,3-dihydro-1H-pyrrolo[3,2-b]pyridin-6-yl)-3-isopropyl-3H-imidazo[4,5-c]pyridin-4-yl)amino)-2-chloro-N-(2,2-difluoroethyl)-3,4-difluorobenzamide]"
3,0.07,"Cc1cc(F)c(Nc2nc(-c3cnc4c(c3)N([C@H]3C[C@@](C)(N5CCCCC5)C3)C(=O)C43CCOCC3)cc3ncn(C(C)C)c23)cc1C(=O)NC1(C(F)F)CC1 [Example 206, N-(1-(Difluoromethyl)cyclopropyl)-4-fluoro-5-((3-isopropyl-6-(1′-((1s,3s)-3-methyl-3-(piperidin-1-yl)cyclobutyl)-2′-oxo-1′,2,2′,3,5,6-hexahydrospiro[pyran-4,3′-pyrrolo[3,2-b]pyridin]-6′-yl)-3H-imidazo[4,5-c]pyridin-4-yl)amino)-2-methylbenzamide]"
4,0.1,CC[C@H](C)n1cnc2cc(-c3ccc4c(c3)N([C@H]3C[C@@H](N5CCCCC5)C3)C(=O)C4(C)C)nc(Nc3ccc(C)c(C(=O)NC)c3)c21 [Example 128]
5,0.08,CNC(=O)c1cc(Nc2nc(-c3ccc4c(c3)N([C@H]3C[C@@H](N5CC(C)(C)CC(C)(C)C5)C3)C(=O)C43CCN(C(C)=O)CC3)cc3ncn(C4CC4)c23)ccc1C [Example 160]
6,0.07,Cc1ccc(Nc2nc(-c3ccc4c(c3)N([C@H]3C[C@@H](N5CCCCC5)C3)C(=O)C43CCOCC3)cc3ncn(C4CC4)c23)cc1C(N)=O [Example 126]
7,0.2,COCCNC(=O)c1cc(Nc2nc(-c3ccc4c(c3)N([C@H]3C[C@@H](N5CCCCC5)C3)C(=O)C43CCN(C(C)=O)CC3)cc3ncn(C(C)C)c23)c(F)cc1C [Example 86]
8,0.2,CNC(=O)c1cc(Nc2nc(-c3ccc4c(c3)N([C@H]3C[C@@H](N5CCCCC5)C3)C(=O)C4(C)C)cc3ncn(C(C)C)c23)ccc1C1CC1 [Example 142]
9,0.1,CNC(=O)c1cc(Nc2nc(-c3ccc4c(c3)N([C@H]3C[C@@H](N5CCCCC5)C3)C(=O)C43CCN(C(=O)C4(C)CCC4)CC3)cc3ncn(C4CC4)c23)ccc1C [Example 149]
10,0.1,"CC(C)n1cnc2cc(-c3cnc4c(c3)N([C@H]3C[C@@](C)(N5CC6CCC6C5)C3)C(=O)C4(C)C)nc(Nc3cc(C(=O)NC4(C(F)F)CC4)c(Cl)c(F)c3F)c21 (stereo partly drawn) [Example 205, 5-((6-(1-((1s,3s)-3-(3-Azabicyclo[3.2.0]heptan-3-yl)-3-methylcyclobutyl)-3,3-dimethyl-2-oxo-2,3-dihydro-1H-pyrrolo[3,2-b]pyridin-6-yl)-3-isopropyl-3H-imidazo[4,5-c]pyridin-4-yl)amino)-2-chloro-N-(1-(difluoromethyl)cyclopropyl)-3,4-difluorobenzamide]"

row,SMILES,IC50 [nM]
1,CNC(=O)c1cc(Nc2nc(-c3ccc4c(c3)N([C@H]3C[C@@H](N5C6CCC5COC6)C3)C(=O)C4(C)C)cc3ncn(C(C)C)c23)c(F)cc1C [Example 8],0.08
